# Measurements reported in US20250255883A1, “Compositions and Methods for Treating Aging Hair” (CHL Industries, LLC, priority 2021, published 2025).
# System: Normal human keratinocytes (HEKa)
# Experiment: Real-time quantitative PCR gene expression in normal human keratinocytes treated for 24 hours
# Format: cell-based
structure (smiles),measurement,setting,value
"C=CC1=C(C)C2=CC3=NC(=C(CC(=O)[O-])C4=NC(=C(C)C4=C([O-])[O-])C=c4[n-]c(c(C)c4CC)=CC1=N2)[C@@H](CCC(=O)[O-])[C@@H]3C.[Cu+2].[Na+].[Na+].[Na+] [TCCE6, trisodium copper (II) chlorin e6]",Fold Up- or Down-Regulation 18S,"gene 18S (housekeeping), 20 ug/mL, vs. water-treated control",1.1 Fold
same,Fold Up- or Down-Regulation AQP3,"gene AQP3, 20 ug/mL, vs. water-treated control",1.7 Fold
same,Fold Up- or Down-Regulation AREL1,"gene AREL1, 20 ug/mL, vs. water-treated control",−1.0 Fold
same,Fold Up- or Down-Regulation ARRDC3,"gene ARRDC3, 20 ug/mL, vs. water-treated control",6.1 Fold
same,Fold Up- or Down-Regulation BAMBI,"gene BAMBI, 20 ug/mL, vs. water-treated control",6.2 Fold
same,Fold Up- or Down-Regulation CCL20,"gene CCL20, 20 ug/mL, vs. water-treated control",1.3 Fold
same,Fold Up- or Down-Regulation CDKN1A,"gene CDKN1A, 20 ug/mL, vs. water-treated control",1.5 Fold
same,Fold Up- or Down-Regulation CSF1,"gene CSF1, 20 ug/mL, vs. water-treated control",−1.3 Fold
same,Fold Up- or Down-Regulation CSF2,"gene CSF2, 20 ug/mL, vs. water-treated control",−1.2 Fold
same,Fold Up- or Down-Regulation CXCL1,"gene CXCL1, 20 ug/mL, vs. water-treated control",1.6 Fold
same,Fold Up- or Down-Regulation CXCL2,"gene CXCL2, 20 ug/mL, vs. water-treated control",1.2 Fold
same,Fold Up- or Down-Regulation CXCL3,"gene CXCL3, 20 ug/mL, vs. water-treated control",1.7 Fold
same,Fold Up- or Down-Regulation CXCL8,"gene CXCL8, 20 ug/mL, vs. water-treated control",1.1 Fold
same,Fold Up- or Down-Regulation CXCL10,"gene CXCL10, 20 ug/mL, vs. water-treated control",2.0 Fold
same,Fold Up- or Down-Regulation CYB561,"gene CYB561, 20 ug/mL, vs. water-treated control",−1.1 Fold
same,Fold Up- or Down-Regulation CYP1A1,"gene CYP1A1, 20 ug/mL, vs. water-treated control",−1.8 Fold
same,Fold Up- or Down-Regulation DDX5,"gene DDX5, 20 ug/mL, vs. water-treated control",1.0 Fold
same,Fold Up- or Down-Regulation DEFB1,"gene DEFB1, 20 ug/mL, vs. water-treated control",2.2 Fold
same,Fold Up- or Down-Regulation EPGN,"gene EPGN, 20 ug/mL, vs. water-treated control",2.3 Fold
same,Fold Up- or Down-Regulation FGF2,"gene FGF2, 20 ug/mL, vs. water-treated control",−1.2 Fold
same,Fold Up- or Down-Regulation FOS,"gene FOS, 20 ug/mL, vs. water-treated control",3.7 Fold
same,Fold Up- or Down-Regulation G2E3,"gene G2E3, 20 ug/mL, vs. water-treated control",−1.2 Fold
same,Fold Up- or Down-Regulation GDF15,"gene GDF15, 20 ug/mL, vs. water-treated control",1.9 Fold
same,Fold Up- or Down-Regulation GPADH,"gene GPADH (housekeeping), 20 ug/mL, vs. water-treated control",−1.2 Fold
same,Fold Up- or Down-Regulation GPX2,"gene GPX2, 20 ug/mL, vs. water-treated control",−1.1 Fold
same,Fold Up- or Down-Regulation HBEGF,"gene HBEGF, 20 ug/mL, vs. water-treated control",2.5 Fold
same,Fold Up- or Down-Regulation HECTD1,"gene HECTD1, 20 ug/mL, vs. water-treated control",−1.0 Fold
same,Fold Up- or Down-Regulation HERC1,"gene HERC1, 20 ug/mL, vs. water-treated control",1.1 Fold
same,Fold Up- or Down-Regulation HIF1AN,"gene HIF1AN, 20 ug/mL, vs. water-treated control",−1.3 Fold
same,Fold Up- or Down-Regulation HPRT1,"gene HPRT1 (housekeeping), 20 ug/mL, vs. water-treated control",1.0 Fold
same,Fold Up- or Down-Regulation HSP90B1,"gene HSP90B1, 20 ug/mL, vs. water-treated control",1.4 Fold
same,Fold Up- or Down-Regulation IFI44L,"gene IFI44L, 20 ug/mL, vs. water-treated control",−2.5 Fold
same,Fold Up- or Down-Regulation JUN,"gene JUN, 20 ug/mL, vs. water-treated control",1.2 Fold
same,Fold Up- or Down-Regulation JUNB,"gene JUNB, 20 ug/mL, vs. water-treated control",1.9 Fold
same,Fold Up- or Down-Regulation LTB4R,"gene LTB4R, 20 ug/mL, vs. water-treated control",1.1 Fold
same,Fold Up- or Down-Regulation MAFF,"gene MAFF, 20 ug/mL, vs. water-treated control",2.2 Fold
same,Fold Up- or Down-Regulation MAP1LC3B,"gene MAP1LC3B, 20 ug/mL, vs. water-treated control",1.5 Fold
same,Fold Up- or Down-Regulation MAPK14,"gene MAPK14, 20 ug/mL, vs. water-treated control",−1.1 Fold
same,Fold Up- or Down-Regulation MGAT1,"gene MGAT1, 20 ug/mL, vs. water-treated control",−1.7 Fold
same,Fold Up- or Down-Regulation MGAT5,"gene MGAT5, 20 ug/mL, vs. water-treated control",1.2 Fold
same,Fold Up- or Down-Regulation MOGS,"gene MOGS, 20 ug/mL, vs. water-treated control",−1.3 Fold
same,Fold Up- or Down-Regulation N4BP1,"gene N4BP1, 20 ug/mL, vs. water-treated control",1.3 Fold
same,Fold Up- or Down-Regulation NFKBIA,"gene NFKBIA, 20 ug/mL, vs. water-treated control",1.3 Fold
same,Fold Up- or Down-Regulation PELI1,"gene PELI1, 20 ug/mL, vs. water-treated control",1.4 Fold
same,Fold Up- or Down-Regulation PLAUR,"gene PLAUR, 20 ug/mL, vs. water-treated control",9.7 Fold
same,Fold Up- or Down-Regulation PPP1R15A,"gene PPP1R15A, 20 ug/mL, vs. water-treated control",2.5 Fold
same,Fold Up- or Down-Regulation PTGFRN,"gene PTGFRN, 20 ug/mL, vs. water-treated control",−2.6 Fold
same,Fold Up- or Down-Regulation PTGS2,"gene PTGS2, 20 ug/mL, vs. water-treated control",2.4 Fold
same,Fold Up- or Down-Regulation PTX3,"gene PTX3, 20 ug/mL, vs. water-treated control",1.8 Fold
same,Fold Up- or Down-Regulation REL,"gene REL, 20 ug/mL, vs. water-treated control",−1.1 Fold
same,Fold Up- or Down-Regulation RSAD2,"gene RSAD2, 20 ug/mL, vs. water-treated control",1.2 Fold
same,Fold Up- or Down-Regulation SAMD9L,"gene SAMD9L, 20 ug/mL, vs. water-treated control",1.5 Fold
same,Fold Up- or Down-Regulation SOD2,"gene SOD2, 20 ug/mL, vs. water-treated control",−1.4 Fold
same,Fold Up- or Down-Regulation SPRR2B,"gene SPRR2B, 20 ug/mL, vs. water-treated control",6.5 Fold
same,Fold Up- or Down-Regulation TGFB1,"gene TGFB1, 20 ug/mL, vs. water-treated control",−1.2 Fold
same,Fold Up- or Down-Regulation TNF,"gene TNF, 20 ug/mL, vs. water-treated control",1.2 Fold
same,Fold Up- or Down-Regulation TNFAIP3,"gene TNFAIP3, 20 ug/mL, vs. water-treated control",2.6 Fold
same,Fold Up- or Down-Regulation UBE2S,"gene UBE2S, 20 ug/mL, vs. water-treated control",−1.1 Fold
same,Fold Up- or Down-Regulation UBE3B,"gene UBE3B, 20 ug/mL, vs. water-treated control",1.4 Fold
same,Fold Up- or Down-Regulation UBE4B,"gene UBE4B, 20 ug/mL, vs. water-treated control",−1.4 Fold
same,Fold Up- or Down-Regulation UBE20,"gene UBE20, 20 ug/mL, vs. water-treated control",2.5 Fold
same,Fold Up- or Down-Regulation VCP,"gene VCP, 20 ug/mL, vs. water-treated control",1.2 Fold
same,Fold Up- or Down-Regulation VEGFA,"gene VEGFA, 20 ug/mL, vs. water-treated control",2.5 Fold
same,fold value changes of significantly (p<0.05) upregulated or downregulated genes,"genes ARRDC3, BAMBI, CXCL10, DEFB1, EPGN, FOS, HBEGF, IFI44L, MAFF, PLAUR, PPP1R15A, PTGS2, SPRR2B, TNFAIP3, UBE20, VEGFA, 20 ug/mL",≥ 2.0 ×
